Legend:
[1] = system: Arabidopsis aba2-1 protoplasts; test: Transient ABA response in Arabidopsis protoplasts (pRD29B::LUC, RCAR11 and ABI2 effectors); format: cell-based, Arabidopsis thaliana; conditions: aba2-1 protoplasts, 18 h ligand exposure
Protocol: Preparation of Arabidopsis protoplasts, transfection of the effector DNA, and analysis of LUC activity were performed as described ([Tischer et al., 2017]). In essence, 10^5 mesophyll protoplasts from leaves of the ABA deficient mutant aba2-1 ([Schwartz et al., 1997]) were transfected with 4 µg DNA of the pRD29B::LUC construct as an ABA-responsive reporter and 3 µg of p35S::GUS (β-glucuronidase reporter gene) expression cassette as an internal control for normalization. In addition, 3 µg p35S::RCAR11 or the empty vector with the same expression cassette were co-expressed with 0.1 µg p35S::ABI2 effector constructs ([Tischer et al., 2017]), and the ligand-dependent induction of ABA-responsive reporter expression were assessed after incubation at 22°C. The expression of LUC and GUS was determined 18 h after transfection and ligand administration.

RCAR11-ABI2 = system: T1, RCAR11-ABI2; test: In vitro phosphatase assay, ABI2 with RCAR11; format: biochemical, Arabidopsis thaliana; conditions: 100 nM ABI2, 200 nM RCAR11
T1 construct: 6xHis (N); made in house; host or cells: Escherichia coli BL21
Protocol: (§1) Expression, purification, and analysis of RCAR and PP2C proteins were performed essentially as described ([Ruschhaupt et al., 2019]). Briefly, the ABA receptors RCAR1, RACR8, and RCAR11 were expressed with an aminoterminal histidine tag using the pSEVA431_LII_6xHIS::RCAR1/RCAR8/RCAR11. ABA coreceptors were expressed as histidine-tagged fusions with the maltose-binding protein using the pSEVA431_LII_6xHIS::MBP::ABI2/HAB1. All constructs were transformed and expressed in Escherichia coli strain BL21 and purified to homogeneity according to supplier’s instruction (GE Healthcare, Chicago, USA). The receptor assay was performed with 100 nM PP2C and a two-fold molar excess of RCAR. Values are means ± SD of three replicates. […] The maximum inhibition was set to 100% in the figures. The phosphatase activity was measured using 4-methylumbelliferyl-phosphate as a substrate ([Meinhard and Grill, 2001]). The increase in fluorescence was recorded over 25 min with excitation and emission wavelengths at 360 and 460 nm, respectively, using a Synergy 2 plate reader (Bio-Tec, Winooski, USA).

Arabidopsis plants = test: Progressive drought experiment: growth, water consumption, WUE; format: in vivo, Arabidopsis thaliana
Protocol: The progressive drought experiment was performed as described ([Yang et al., 2016]). Briefly, 18-day-old Arabidopsis plantlets grown under well-watered and short-day conditions (8 h light with 150 µmol m^-2 s^-1 PAR, 22°C, 50% relative humidity, and 16 h dark with 17°C, 60% relative humidity) were transferred to 0.2 L pots loaded with water-saturated soil (33.4 ± 0.4 g dry soil with 148 ± 2 g water). At the onset of the progressive drought (day 0), water was withheld, and a sealed soil surface prevented evaporation. A slowly increasing water deficit was achieved by transpirational water loss from plants. The progressive drought experiment lasted for eight weeks until mock-treated plants had consumed all the plant-usable water. […] For measuring growth and water consumption, leaf rosettes were regularly photographed, and the pots were weighed. The projected leaf area of Arabidopsis rosettes was analyzed by using Photoshop Elements software (Adobe, San Jose, USA). The consumed water was calculated as the difference in pot weight between day 0 and the designated days. The retained water was expressed as the difference between the pot weight at the end of the drought (day 57) and the weight of the loaded dry soil. Above-ground material was harvested at day 57, and the biomass was determined after drying the material for three days at 60°C to achieve constant weight. WUE was calculated as the ratio of above-ground dry biomass to consumed water. The data for the mock- and ABA-treated plants in the progressive drought experiment were already published ([Yang et al., 2019]).

RCAR1-ABI2 = biological target: T2, RCAR1-ABI2 (Arabidopsis thaliana, UniProt O04719+Q84MC7); test: In vitro phosphatase assay, ABI2 with RCAR1; format: biochemical; conditions: for Statistical significance of RCAR1-mediated inhibition of ABI2 phosphatase activity vs ABA / Statistical significance of RCAR1-mediated inhibition of ABI2 phosphatase activity vs CCP1: Fig. 3B
T2 construct: 6xHis (N); made in house; host or cells: Escherichia coli BL21
T2 sequence (Q84MC7 1-187): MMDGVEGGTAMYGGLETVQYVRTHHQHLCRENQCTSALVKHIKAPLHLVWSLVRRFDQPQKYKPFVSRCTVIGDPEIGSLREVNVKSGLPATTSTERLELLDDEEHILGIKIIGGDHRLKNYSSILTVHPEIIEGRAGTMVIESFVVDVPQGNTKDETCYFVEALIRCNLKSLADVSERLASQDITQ
T2 sequence (O04719 1-423): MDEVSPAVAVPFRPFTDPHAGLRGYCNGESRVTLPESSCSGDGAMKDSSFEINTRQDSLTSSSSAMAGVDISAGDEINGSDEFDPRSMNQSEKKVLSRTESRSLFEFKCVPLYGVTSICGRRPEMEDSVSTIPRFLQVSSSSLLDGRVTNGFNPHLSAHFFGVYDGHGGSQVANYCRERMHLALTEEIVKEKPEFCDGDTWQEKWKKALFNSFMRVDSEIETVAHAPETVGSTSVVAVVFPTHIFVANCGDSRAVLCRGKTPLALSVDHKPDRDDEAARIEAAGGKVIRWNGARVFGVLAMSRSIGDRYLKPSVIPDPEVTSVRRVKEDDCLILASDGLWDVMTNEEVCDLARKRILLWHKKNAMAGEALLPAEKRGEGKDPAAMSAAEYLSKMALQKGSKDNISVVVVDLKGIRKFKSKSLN
Protocol: as §1

Inhibition of ABI2 compared to ABA (RCAR11-ABI2): comparable to ABA | IC50 relative to ABA (fold higher) (RCAR1-ABI2; 100 nM ABI2 and 200 nM RCAR1): approximately 100 fold
Compound: CCC(=C/C(=O)O)/C=C/C(O)(C(C)C)C1(C#N)CC1 (stereo not shown) [CCP2]
Induction of ABA signaling compared to ABA [1]: ABA-like activity | WUE increase (Arabidopsis plants; 30 µM solute concentration): ~50% | Growth of leaf rosettes compared to mock (Arabidopsis plants; 30 µM, three administrations): growth reduction | Plant-usable soil water transpired (Arabidopsis plants; end of drought experiment): ~70% | WUE improvement compared to controls (Arabidopsis plants; end of drought experiment): up to 50% | Restriction of water consumption (Arabidopsis plants; single administration, for two weeks): approximately 30% | Statistical significance of RCAR1-mediated inhibition of ABI2 phosphatase activity vs ABA (RCAR1-ABI2; 0.003 µM): ns (Otherwise, the difference is regarded as insignificant indicated as “ns”) | Statistical significance of RCAR1-mediated inhibition of ABI2 phosphatase activity vs CCP1 (RCAR1-ABI2; 0.003 µM): ns (Otherwise, the difference is regarded as insignificant indicated as “ns”) | Statistical significance of RCAR1-mediated inhibition of ABI2 phosphatase activity vs ABA (RCAR1-ABI2; 0.01 µM): ns (Otherwise, the difference is regarded as insignificant indicated as “ns”) | Statistical significance of RCAR1-mediated inhibition of ABI2 phosphatase activity vs CCP1 (RCAR1-ABI2; 0.01 µM): ns (Otherwise, the difference is regarded as insignificant indicated as “ns”) | Statistical significance of RCAR1-mediated inhibition of ABI2 phosphatase activity vs ABA (RCAR1-ABI2; 0.03 µM): s (P < 0.05 (one-way ANOVA) is considered as a significant difference and expressed as “s”) | Statistical significance of RCAR1-mediated inhibition of ABI2 phosphatase activity vs CCP1 (RCAR1-ABI2; 0.03 µM): ns (Otherwise, the difference is regarded as insignificant indicated as “ns”) | Statistical significance of RCAR1-mediated inhibition of ABI2 phosphatase activity vs ABA (RCAR1-ABI2; 0.1 µM): s (P < 0.05 (one-way ANOVA) is considered as a significant difference and expressed as “s”) | Statistical significance of RCAR1-mediated inhibition of ABI2 phosphatase activity vs CCP1 (RCAR1-ABI2; 0.1 µM): s (P < 0.05 (one-way ANOVA) is considered as a significant difference and expressed as “s”) | Statistical significance of RCAR1-mediated inhibition of ABI2 phosphatase activity vs ABA (RCAR1-ABI2; 0.3 µM): s (P < 0.05 (one-way ANOVA) is considered as a significant difference and expressed as “s”) | Statistical significance of RCAR1-mediated inhibition of ABI2 phosphatase activity vs CCP1 (RCAR1-ABI2; 0.3 µM): s (P < 0.05 (one-way ANOVA) is considered as a significant difference and expressed as “s”) | Statistical significance of RCAR1-mediated inhibition of ABI2 phosphatase activity vs ABA (RCAR1-ABI2; 1 µM): s (P < 0.05 (one-way ANOVA) is considered as a significant difference and expressed as “s”) | Statistical significance of RCAR1-mediated inhibition of ABI2 phosphatase activity vs CCP1 (RCAR1-ABI2; 1 µM): ns (Otherwise, the difference is regarded as insignificant indicated as “ns”) | Statistical significance of RCAR1-mediated inhibition of ABI2 phosphatase activity vs ABA (RCAR1-ABI2; 3 µM): s (P < 0.05 (one-way ANOVA) is considered as a significant difference and expressed as “s”) | Statistical significance of RCAR1-mediated inhibition of ABI2 phosphatase activity vs CCP1 (RCAR1-ABI2; 3 µM): ns (Otherwise, the difference is regarded as insignificant indicated as “ns”) | Statistical significance of RCAR1-mediated inhibition of ABI2 phosphatase activity vs ABA (RCAR1-ABI2; 10 µM): s (P < 0.05 (one-way ANOVA) is considered as a significant difference and expressed as “s”) | Statistical significance of RCAR1-mediated inhibition of ABI2 phosphatase activity vs CCP1 (RCAR1-ABI2; 10 µM): ns (Otherwise, the difference is regarded as insignificant indicated as “ns”) | Statistical significance of RCAR1-mediated inhibition of ABI2 phosphatase activity vs ABA (RCAR1-ABI2; 30 µM): s (P < 0.05 (one-way ANOVA) is considered as a significant difference and expressed as “s”) | Statistical significance of RCAR1-mediated inhibition of ABI2 phosphatase activity vs CCP1 (RCAR1-ABI2; 30 µM): ns (Otherwise, the difference is regarded as insignificant indicated as “ns”) | Statistical significance of RCAR1-mediated inhibition of ABI2 phosphatase activity vs ABA (RCAR1-ABI2; 100 µM): s (P < 0.05 (one-way ANOVA) is considered as a significant difference and expressed as “s”) | Statistical significance of RCAR1-mediated inhibition of ABI2 phosphatase activity vs CCP1 (RCAR1-ABI2; 100 µM): ns (Otherwise, the difference is regarded as insignificant indicated as “ns”)

Source: article PMC9894685, “Abscisic acid agonists suitable for optimizing plant water use” (Frontiers in Plant Science, 2023)
